Test system: C57BL/KsJ-db/db mice
Test: Blood sugar and triglycerides lowering activity in db/db mice, oral gavage daily for 6 days
Type: in vivo
Details: male db/db mice; for Maximum reduction in blood glucose level (%) / Triglyceride lowering (%): oral gavage daily for 6 days
Excerpt: Mutation in colonies of laboratory animals and different sensitivities to dietary regimens have made the development of animal models with non-insulin dependent diabetes associated with obesity and insulin resistance possible. Genetic models such as db/db and ob/ob (See Diabetes, (1982) 31(1) : 1- 6) in mice and fa/fa and zucker rats have been developed by the various laboratories for understanding the pathophysiology of disease and testing the efficacy of new antidiabetic compounds (Diabetes, (1983) 32: 830-838; Annu. Rep. Sankyo Res. Lab. (1994) 46 : 1-57). The homozygous animals, C57 BL/KsJ-db/db mice developed by Jackson Laboratory, US, are obese. hyperglycemic, hyperinsulinemic and insulin resistant (J. Clin. Invest., (1990) 85 : 962-967), whereas heterozygous are lean and normoglycemic. In db/db model, mouse progressively develops insulinopenia with age, a feature commonly observed in late stages of human type II diabetes when blood sugar levels are insufficiently controlled. The state of pancreas and its course vary according to the models. Since this model resembles that of type II diabetes mellitus, the compounds of the present invention were tested for blood sugar and triglycerides lowering activities.
Male C57BL/KsJ-db/db mice of 8 to 14 weeks age, having body weight range of 35 to 60 grams, procured from the Jackson Laboraotory, USA, were used in the experiment. The mice were provided with standard feed (National Institute of Nutrition, Hyderabad, India) and acidified water, ad libitum. The animals having more than 300 mg / dl blood sugar were used for testing. The number of animals in each group was 4.
The random blood sugar and triglyceride levels were measured by collecting blood (100 µl) through orbital sinus, using heparinised capillary in tubes containing EDTA which was centrifuged to obtain plasma. The plasma glucose and triglycerides levels were measured spectrometrically, by glucose oxidase and glycerol-3-PO4 oxidase/peroxidase enzyme (Dr. Reddy's Lab. Diagnostic Division Kits, Hyderabad, India) methods respectively. On 6th day the blood samples were collected one hour after administration of test compounds / vehicle for assessing the biological activity.
Test compounds were suspended on 0.25 % carboxymethyl cellulose and administered to test group at a dose of 1 mg to 100 mg / kg through oral gavage daily for 6 days. The control group received vehicle (dose 10 ml / kg).

O=C1NC(=O)C(Cc2ccc(OCC3NC(=O)c4ccccc4O3)cc2)S1 (stereo not drawn) [Example 3, 5-[4-1[[4-Oxo-3,4-dihydro-(2H)-1,3-benzoxazine-2-yl]methoxy]phenylmethyl]thiazotidin-2,4-dione]
Maximum reduction in blood glucose level (%) (dose 10 mg/kg/day): 41%
Triglyceride lowering (%) (dose 10 mg/kg/day): 48%

CN1C(=O)c2ccccc2OC1COc1ccc(CC2SC(=O)NC2=O)cc1 (stereo not drawn) [Example 4, 5-[4-[[3-Methyl-4-oxo-3,4-dihydro-(2H)-1,3-benzoxazine-2-yl]methoxy]phenylmethyl] thiazolidin-2,4-dione]
Maximum reduction in blood glucose level (%) (dose 10 mg/kg/day): 48%
Triglyceride lowering (%) (dose 10 mg/kg/day): 42%

CN1C(=O)c2ccccc2N(C)C1COc1ccc(CC2SC(=O)NC2=O)cc1 (stereo not drawn) [Example 11, 5-[4-[[1,3-Dimethyl-4-oxo-1,2,3,4-tetrahydro-2-quinazolinyl]methoxy]phenylmethyl) thiazolidin-2,4-dione]
Maximum reduction in blood glucose level (%) (dose 1 mg/kg/day): 34%
Triglyceride lowering (%) (dose 1 mg/kg/day): 28%

CN1C(=O)c2ccccc2NC1COc1ccc(CC2SC(=O)NC2=O)cc1 (stereo not drawn) [Example 12, 5-[4-[[3-Methyl-4-oxo-1,2,3,4-tetrahydro-2-quinazolinyl]methoxy]phenylmethyl] thiazolidin-2,4-dione]
Maximum reduction in blood glucose level (%) (dose 3 mg/kg/day): 55%
Triglyceride lowering (%) (dose 3 mg/kg/day): 35%

Cc1c(C)c2c(c(C)c1O)CCC(C)(COc1ccc(CC3SC(=O)NC3=O)cc1)O2 (stereo not drawn) [Troglitazone, reference compound]
reduction in random blood sugar level (100 mg / kg, daily dose, on 6th day): 28%

Source: patent publication EP1036075B1, “SUBSTITUTED THIAZOLIDINEDIONE AND OXAZOLIDINEDIONE HAVING ANTIDIABETIC, HYPOLIPIDEMIA AND ANTIHYPERTENSIVE PROPERTIES” (Dr. Reddy's Laboratories Ltd., priority 1997, dated 1998)
